Measured values: patent US20100248229A1, “INVITRO HUMAN EMBRYONIC MODEL AND A METHOD THEREOF” (Stempeutics Research Private Limited, priority 2007, published 2010)
Entries after “also recorded” stand apart in the source; their conditions may differ. Blank lines part the entries; values can stand above or below the compound they belong to.

Legend:
EBs = experiment: In vitro 3-D embryo implantation model: attachment and outgrowth of EBs; assay type: cell-based, human; conditions: for degeneration, attachment and outgrowth of EBs in implantation model: high dose, 48 hrs; for ability of attached EBs to give rise to all lineages: lineage induction studies, in presence of the compound
Description: An in vitro 3-dimensional (3-D) model/system for embryo implantation employing EBs in place of embryos was developed. The EBs collected on different days were subjected to implantation/attachment on the artificial substratum/surface.
To make this artificial surface regular tissue culture dishes or organ culture dishes were coated with about 1 to 2 mm thick coating of 0.5 to 1% low melting or high melting agarose in DPBS. A few wells of about 1 to 2 mm diameter are created using sterile paper disks, preferable in the center of the dish, which were removed after the agarose solidifies. Alternatively a horizontal tube like structure can be created by casting the gel over a fine glass capillary, which can be withdrawn as the agarose solidifies. This cavity/depression or tube like structure of agarose is then coated with matrix proteins like matrigel, collagen, fibronectin, laminin, gelatin etc. The coated agarose dishes were also layered with mouse or human endometrial stromal cells obtained from primary cultures or cell lines. The EBs were placed carefully in the cavity created or flushed inside the tube using a bent pasture pipette. The cells were cultured in normal standard EB media.
The EBs adhere and outgrows spreading out as a monolayer of cells on the extracellular matrix. Some cells invaded the surrounding agarose by day 10. A failure to implant/outgrow within ten days on this matrix after exposure to the drug/molecule indicates an abnormality. However, some drugs/could also support/enhance the process of attachment and outgrowth of the EBs. These molecules were screened for several other possible applications, though these may not necessarily be safe for embryonic development.
Four day old EBs were cultured on agarose and fibronectin coated surfaces. […] However, as Y27632 supports and enhances outgrowth, the effect of this drug on the expression profiles of the lineage markers and other genes needs to be screened for evaluating effect on normal development.
The model consists of a culture plate which is coated with Low melting (0.5%) agarose, A well of various depths is created in the agarose by various means eg: putting sterile filter paper disks while casting the gel and removing them latter. The gel is then coated with extracellular matrix components like fibronectin, collagen, laminin, etc. Human endometrial stromal fibroblast cell line CRL4003 is grown on this extracellular matrix as a monolayer. The spherical embryoid bodies or embryo like entities at day 4.5 are injected or pipetted into these cavities. The attachment is allowed in a culture media regularly used for hESC culture, without FGF2 supplementation (FIG. 1).
3. Lineage induction studies: The embryoid bodies after attachment to the implantation site differentiates to all lineages.
Method: Spherical Cytic EBs were collected on day 4.5 and exposed to the continuous presence of Y27632 (various doses were used). […] The control cytic EB had however just attached with smaller area of outgrowth showing that this dose of Y27632 can help in initial implantation of embryo during pregnancy.

HUES 9 EB = experiment: Expression profiles of lineage, pluripotency, epigenetic and imprinted genes in day 4.5 spherical EBs (HUES 9); assay type: cell-based, human; set-up: key: The sign ‘+’ indicates expression of the gene; the sign “−” indicates non-expression of the gene
Protocol: RT-PCR: Total RNA from cells was isolated using TRIZOL-LS Reagent (Invitrogen) as per the manufacturer's protocol. Complementary DNA was synthesized using the SuperScript III First-Strand Synthesis System (Invitrogen) as per the manufacturer's instructions. Polymerase Chain Reaction (PCR) was carried out using 1U Tag DNA Polymerase (Sigma) and MgCl2 to a final concentration of 1.5 mM in a total volume of 25 μl/reaction. β-actin and GAPDH were used as the housekeeping controls. PCR cycles consisted of an initial denaturation at 95° C. for 5 minutes followed by 35 amplification cycles of denaturation at 94° C. for 45 seconds, annealing for 45 seconds, and extension at 72° C. for 45 seconds and final extension at 72° C. for 10 minutes.
Examples of changes in the expression profiles/patterns of lineage markers, pluripotency markers, epigenetic markers and imprinted genes, in day 4.5 spherical cavitating/cytic embryoid bodies upon exposure to compounds like lipopolysaccharide (LPS), Rho kinase inhibitor (Y27632), Azacytidine (Aza), and biologicals like an Uvomorulin antibody (UVO) are given in the table nos. 9-12 below. The sign ‘+’ indicates expression of the gene and the sign “−” indicates non-expression of the gene.

[1] = HUES 9 EB DAY 4.5 RI (Y27632), control +
[2] = HUES 9 EB DAY 4.5 RI (Y27632), control −

SMILES: Nc1ncn([C@@H]2O[C@H](CO)[C@@H](O)[C@H]2O)c(=O)n1 [5-Azacytidine]
degeneration, attachment and outgrowth of EBs in implantation model (EBs): degeneration of the EBs, and they failed to attach and outgrow
BRACHURY gene expression (HUES 9 EB; HUES 9 EB D 4.5 AZA, control +): −
CDH1 gene expression (HUES 9 EB; HUES 9 EB D 4.5 AZA, control +): −
CDH13 gene expression (HUES 9 EB; HUES 9 EB D 4.5 AZA, control +): −
CDX2 gene expression (HUES 9 EB; HUES 9 EB D 4.5 AZA, control +): −
DLK1 gene expression (HUES 9 EB; HUES 9 EB D 4.5 AZA, control +): −
HOXD12 gene expression (HUES 9 EB; HUES 9 EB D 4.5 AZA, control +): −
NANOG gene expression (HUES 9 EB; HUES 9 EB D 4.5 AZA, control +): −
SDHD gene expression (HUES 9 EB; HUES 9 EB D 4.5 AZA, control +): −
TIMP3 gene expression (HUES 9 EB; HUES 9 EB D 4.5 AZA, control +): −
TNFR gene expression (HUES 9 EB; HUES 9 EB D 4.5 AZA, control +): −
hTERT gene expression (HUES 9 EB; HUES 9 EB D 4.5 AZA, control +): −
p53 gene expression (HUES 9 EB; HUES 9 EB D 4.5 AZA, control +): −
BMP-2 gene expression (HUES 9 EB; HUES 9 EB D 4.5 AZA, control −): −
CD44 gene expression (HUES 9 EB; HUES 9 EB D 4.5 AZA, control −): −
DPYS gene expression (HUES 9 EB; HUES 9 EB D 4.5 AZA, control −): +
H19 gene expression (HUES 9 EB; HUES 9 EB D 4.5 AZA, control −): −
OCT-4 gene expression (HUES 9 EB; HUES 9 EB D 4.5 AZA, control −): +
PTEN gene expression (HUES 9 EB; HUES 9 EB D 4.5 AZA, control −): −
β-III TUBULIN gene expression (HUES 9 EB; HUES 9 EB D 4.5 AZA, control −): −

ability of attached EBs to give rise to all lineages (EBs): compromised
SMILES: C[S+](C)[O-] [DMSO]
degeneration, attachment and outgrowth of EBs in implantation model (EBs): degeneration of the EBs, and they failed to attach and outgrow

ability of attached EBs to give rise to all lineages (EBs): compromised
SMILES: OO [H2O2]

SMILES: C[C@@H](N)[C@H]1CC[C@H](C(=O)Nc2ccncc2)CC1 [Y27632]
attachment and outgrowth of spheroid cavitating/cystic EB in implantation model (EBs; day 4.5 EBs, 20 μM, 48 hrs exposure): supportive/enhanced attachment; also recorded: attached and outgrown to a larger area
attachment of EBs (EBs; four day old EBs on agarose and fibronectin coated surfaces, 20 μM, control attached from 4th day): enhanced attachment from day 2 onwards
BRACHURY gene expression (HUES 9 EB; [1]): −
CDH1 gene expression (HUES 9 EB; [1]): +
CDX-2 gene expression (HUES 9 EB; [1]): −
DLK-1 gene expression (HUES 9 EB; [1]): −
HOXD11 gene expression (HUES 9 EB; [1]): +
HOXD12 gene expression (HUES 9 EB; [1]): −
SDHD gene expression (HUES 9 EB; [1]): −
TIMP3 gene expression (HUES 9 EB; [1]): −
hTERT gene expression (HUES 9 EB; [1]): −
p53 gene expression (HUES 9 EB; [1]): −
BMP-2 gene expression (HUES 9 EB; [2]): −
CD44 gene expression (HUES 9 EB; [2]): +
NOTCH gene expression (HUES 9 EB; [2]): +
OCT-4 gene expression (HUES 9 EB; [2]): +
PGR gene expression (HUES 9 EB; [2]): +
PTEN gene expression (HUES 9 EB; [2]): +
TGF β gene expression (HUES 9 EB; [2]): +
TP73 gene expression (HUES 9 EB; [2]): +
β-III TUBULIN gene expression (HUES 9 EB; [2]): +
